Experimental data: PubChem BioAssay AID292 (DTP/NCI, 2004)
Several values for one entry are separate records, joined by “and”; a condition that tells them apart may be missing. Equal values may be shown once. Inconclusive results and toxic doses are left out.

Test system: B6C3F1 mice, ip Sarcoma M5076, median survival T/C
Test: NCI In Vivo Anticancer Drug Screen. Data for tumor model Sarcoma M5076 (intraperitoneal) in B6C3F1 mice
Details: endpoint: median survival time, higher = longer survival
In short: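 The readout is a ratio of survival in drug-treated animals to survival in animals given vehicle alone, taken in mice bearing a transplanted tumour line.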

[1] = dose: 12.5 mg/kg/injection, schedule: Q04DX004 (ip), vehicle: Klucel (hydroxypropylcellulose) (HPC)

O=[n+]1c2c(n([O-])c3ccccc31)CCC2
T/C (dose: 21.9 mg/kg/injection, schedule: Q04DX004 (ip), vehicle: saline with Tween-80): 103 % of control
T/C (dose: 43.75 mg/kg/injection, schedule: Q04DX004 (ip), vehicle: saline with Tween-80): 102 % of control
T/C (dose: 87.5 mg/kg/injection, schedule: Q04DX004 (ip), vehicle: saline with Tween-80): 104 % of control
T/C (dose: 175.0 mg/kg/injection, schedule: Q04DX004 (ip), vehicle: saline with Tween-80): 107 % of control and 108 % of control
T/C (dose: 350.0 mg/kg/injection, schedule: Q04DX004 (ip), vehicle: saline with Tween-80): 109 % of control and 110 % of control

CO[C@@]12[C@@H]3N[C@@H]3CN1C1=C(C(=O)C(NCC3CCCO3)=C(C)C1=O)[C@@H]2COC(N)=O (stereo partly specified)
T/C (dose: 1.5 mg/kg/injection, schedule: Q04DX004 (ip), vehicle: distilled water + Tween-80): 117 % of control
T/C (dose: 3.0 mg/kg/injection, schedule: Q04DX004 (ip), vehicle: distilled water + Tween-80): 118 % of control
T/C (dose: 12.0 mg/kg/injection, schedule: Q04DX004 (ip), vehicle: distilled water + Tween-80): 160 % of control
T/C (dose: 24.0 mg/kg/injection, schedule: Q04DX004 (ip), vehicle: distilled water + Tween-80): 191 % of control

Nc1nc(N)c2cc(C=O)ccc2n1
T/C (dose: 3.13 mg/kg/injection, schedule: Q04DX004 (ip), vehicle: water): 91 % of control and 98 % of control
T/C (dose: 6.25 mg/kg/injection, schedule: Q04DX004 (ip), vehicle: water): 94 % of control
T/C (dose: 12.5 mg/kg/injection, schedule: Q04DX004 (ip), vehicle: water): 101 % of control and 103 % of control
T/C (dose: 50.0 mg/kg/injection, schedule: Q04DX004 (ip), vehicle: water): 88 % of control

CN(C)[C@@H]1C(=O)C(C(N)=O)=C(O)[C@@]2(O)C(=O)C3=C(O)c4c(O)ccc(Cl)c4[C@@](C)(O)[C@H]3C[C@@H]12
T/C (dose: 25.0 mg/kg/injection, schedule: Q04DX004 (ip), vehicle: suspension in saline): 86 % of control
T/C (dose: 50.0 mg/kg/injection, schedule: Q04DX004 (ip), vehicle: suspension in saline): 96 % of control
T/C (dose: 100.0 mg/kg/injection, schedule: Q04DX004 (ip), vehicle: suspension in saline): 91 % of control

COC(=O)c1ccc(N=NN(C)COC(C)=O)cc1
T/C (dose: 30.0 mg/kg/injection, schedule: Q04DX004 (ip), vehicle: Klucel (hydroxypropylcellulose) (HPC)): 123 % of control
T/C (dose: 60.0 mg/kg/injection, schedule: Q04DX004 (ip), vehicle: Klucel (hydroxypropylcellulose) (HPC)): 123 % of control
T/C (dose: 103.7 mg/kg/injection, schedule: Q04DX004 (ip), vehicle: Klucel (hydroxypropylcellulose) (HPC)): 175 % of control
T/C (dose: 172.8 mg/kg/injection, schedule: Q04DX004 (ip), vehicle: Klucel (hydroxypropylcellulose) (HPC)): 188 % of control
T/C (dose: 288.0 mg/kg/injection, schedule: Q04DX004 (ip), vehicle: Klucel (hydroxypropylcellulose) (HPC)): 195 % of control
T/C (dose: 480.0 mg/kg/injection, schedule: Q04DX004 (ip), vehicle: Klucel (hydroxypropylcellulose) (HPC)): 167 % of control

Oc1cc(O)cc(/C=C/c2ccc(O)c(O)c2)c1
T/C (dose: 12.5 mg/kg/injection, schedule: Q04DX004 (ip), vehicle: DMSO): 97 % of control
T/C (dose: 25.0 mg/kg/injection, schedule: Q04DX004 (ip), vehicle: DMSO): 99 % of control
T/C (dose: 50.0 mg/kg/injection, schedule: Q04DX004 (ip), vehicle: DMSO): 89 % of control
T/C (dose: 100.0 mg/kg/injection, schedule: Q04DX004 (ip), vehicle: DMSO): 91 % of control

C=C1c2cccc(O)c2C(O)=C2C(=O)[C@]3(O)C(O)=C(C(N)=O)C(=O)[C@@H](N(C)C)[C@@H]3[C@@H](O)[C@H]12
T/C [1]: 105 % of control
T/C (dose: 25.0 mg/kg/injection, schedule: Q04DX004 (ip), vehicle: Klucel (hydroxypropylcellulose) (HPC)): 105 % of control
T/C (dose: 50.0 mg/kg/injection, schedule: Q04DX004 (ip), vehicle: Klucel (hydroxypropylcellulose) (HPC)): 101 % of control
T/C (dose: 100.0 mg/kg/injection, schedule: Q04DX004 (ip), vehicle: Klucel (hydroxypropylcellulose) (HPC)): 102 % of control

COC1OC(COC(C)=O)C(OC(C)=O)C(OC(C)=O)[CH]1[Hg][O]C(C)=O (stereo unspecified)
T/C (dose: 6.25 mg/kg/injection, schedule: Q04DX004 (ip), vehicle: Klucel (hydroxypropylcellulose) (HPC)): 95 % of control
T/C [1]: 96 % of control

CCOC(=O)/N=[N+](\[O-])c1ccccc1
T/C (dose: 3.13 mg/kg/injection, schedule: Q04DX004 (ip), vehicle: saline with Tween-80): 105 % of control
T/C (dose: 6.25 mg/kg/injection, schedule: Q04DX004 (ip), vehicle: saline with Tween-80): 97 % of control
T/C (dose: 12.5 mg/kg/injection, schedule: Q04DX004 (ip), vehicle: saline with Tween-80): 104 % of control
T/C (dose: 25.0 mg/kg/injection, schedule: Q04DX004 (ip), vehicle: saline with Tween-80): 97 % of control
T/C (dose: 50.0 mg/kg/injection, schedule: Q04DX004 (ip), vehicle: saline with Tween-80): 101 % of control

O=C(O)c1cccc2c1ccc1ccccc12
T/C (dose: 4.0 mg/kg/injection, schedule: Q04DX004 (ip), vehicle: saline with Tween-80): 109 % of control
T/C (dose: 8.0 mg/kg/injection, schedule: Q04DX004 (ip), vehicle: saline with Tween-80): 102 % of control
T/C (dose: 8.0 mg/kg/injection, schedule: Q04DX005 (ip), vehicle: saline): 98 % of control
T/C (dose: 16.0 mg/kg/injection, schedule: Q04DX004 (ip), vehicle: saline with Tween-80): 107 % of control
T/C (dose: 16.0 mg/kg/injection, schedule: Q04DX005 (ip), vehicle: saline): 93 % of control
T/C (dose: 32.0 mg/kg/injection, schedule: Q04DX004 (ip), vehicle: saline with Tween-80): 105 % of control
T/C (dose: 32.0 mg/kg/injection, schedule: Q04DX005 (ip), vehicle: saline): 96 % of control
T/C (dose: 64.0 mg/kg/injection, schedule: Q04DX004 (ip), vehicle: saline with Tween-80): 103 % of control
T/C (dose: 64.0 mg/kg/injection, schedule: Q04DX005 (ip), vehicle: saline): 94 % of control
T/C (dose: 128.0 mg/kg/injection, schedule: Q04DX005 (ip), vehicle: saline): 96 % of control

C[CH2][Sn]([CH2]C)([CH2]C(=O)OC)[CH2]C(=O)OC
T/C (dose: 1.5 mg/kg/injection, schedule: Q04DX004 (ip), vehicle: saline with Tween-80): 96 % of control
T/C (dose: 3.0 mg/kg/injection, schedule: Q04DX004 (ip), vehicle: saline with Tween-80): 93 % of control
T/C (dose: 6.0 mg/kg/injection, schedule: Q04DX004 (ip), vehicle: saline with Tween-80): 95 % of control
T/C (dose: 12.0 mg/kg/injection, schedule: Q04DX004 (ip), vehicle: saline with Tween-80): 92 % of control

NCCNCC(O)CO (stereo unspecified)
T/C (dose: 50.0 mg/kg/injection, schedule: Q04DX004 (ip), vehicle: saline): 99 % of control
T/C (dose: 100.0 mg/kg/injection, schedule: Q04DX004 (ip), vehicle: saline): 103 % of control
T/C (dose: 200.0 mg/kg/injection, schedule: Q04DX004 (ip), vehicle: saline): 103 % of control
T/C (dose: 400.0 mg/kg/injection, schedule: Q04DX004 (ip), vehicle: saline): 99 % of control
T/C (dose: 800.0 mg/kg/injection, schedule: Q04DX004 (ip), vehicle: saline): 95 % of control

CC1(CO)C(O)CCC2(C)C1CCC1CC3CC12CCC3(O)CO (stereo unspecified)
T/C (dose: 51.8 mg/kg/injection, schedule: Q04DX005 (ip), vehicle: Klucel (hydroxypropylcellulose) (HPC)): 120 % of control
T/C (dose: 86.4 mg/kg/injection, schedule: Q04DX004 (ip), vehicle: Klucel (hydroxypropylcellulose) (HPC)): 120 % of control
T/C (dose: 86.4 mg/kg/injection, schedule: Q04DX005 (ip), vehicle: Klucel (hydroxypropylcellulose) (HPC)): 124 % of control
T/C (dose: 144.0 mg/kg/injection, schedule: Q04DX004 (ip), vehicle: Klucel (hydroxypropylcellulose) (HPC)): 116 % of control
T/C (dose: 144.0 mg/kg/injection, schedule: Q04DX005 (ip), vehicle: Klucel (hydroxypropylcellulose) (HPC)): 123 % of control
T/C (dose: 240.0 mg/kg/injection, schedule: Q04DX005 (ip), vehicle: Klucel (hydroxypropylcellulose) (HPC)): 122 % of control
T/C (dose: 400.0 mg/kg/injection, schedule: Q04DX004 (ip), vehicle: Klucel (hydroxypropylcellulose) (HPC)): 151 % of control and 164 % of control

O=c1cc(-c2ccccc2)[nH]c2c1CCCC2
T/C (dose: 75.0 mg/kg/injection, schedule: Q04DX004 (ip), vehicle: saline with Tween-80): 91 % of control
T/C (dose: 150.0 mg/kg/injection, schedule: Q04DX004 (ip), vehicle: saline with Tween-80): 99 % of control
T/C (dose: 300.0 mg/kg/injection, schedule: Q04DX004 (ip), vehicle: saline with Tween-80): 106 % of control
T/C (dose: 600.0 mg/kg/injection, schedule: Q04DX004 (ip), vehicle: saline with Tween-80): 98 % of control

CC(=O)N1CCCN(C)/C1=N/[N+](=O)[O-]
T/C (dose: 37.5 mg/kg/injection, schedule: Q04DX004 (ip), vehicle: saline): 100 % of control
T/C (dose: 75.0 mg/kg/injection, schedule: Q04DX004 (ip), vehicle: saline): 104 % of control
T/C (dose: 150.0 mg/kg/injection, schedule: Q04DX004 (ip), vehicle: saline): 104 % of control
T/C (dose: 300.0 mg/kg/injection, schedule: Q04DX004 (ip), vehicle: saline): 100 % of control
